Assay results from ChEMBL document CHEMBL1641539 (Bioorg Med Chem Lett, 2011).

How the values were obtained:
[1] = target: Mitogen-activated protein kinase 9 (Homo sapiens, UniProt P45984); conditions: 10 uM
Description: Inhibition of human JNK2alpha2 at 10 uM after 60 mins by TR-FRET assay

[2] = target: Focal adhesion kinase 1 (Homo sapiens) (UniProt Q05397); experiment: Inhibition of human FAK at 10 uM after 60 mins by TR-FRET assay; values are per cent of control
[3] = target: Serine/threonine-protein kinase Sgk1 (Homo sapiens) (UniProt O00141); experiment: Inhibition of human SGK at 10 uM after 60 mins by TR-FRET assay; values are per cent of control
[4] = target: Tyrosine-protein kinase ABL1 (Homo sapiens) (UniProt P00519); experiment: Inhibition of human Abl at 10 uM after 60 mins by TR-FRET assay; values are per cent of control
[5] = target: Tyrosine-protein kinase BTK (Homo sapiens) (UniProt Q06187); experiment: Inhibition of human BTK at 10 uM after 60 mins by TR-FRET assay; values are per cent of control
[6] = target: Serine/threonine-protein kinase STK11 (Homo sapiens) (UniProt Q15831); experiment: Inhibition of human LKB1 at 10 uM after 60 mins by TR-FRET assay; values are per cent of control
[7] = target: Mitogen-activated protein kinase kinase kinase 9 (Homo sapiens) (UniProt P80192); experiment: Inhibition of human MLK1 at 10 uM after 60 mins by TR-FRET assay; values are per cent of control
Mitogen-activated protein kinase kinase kinase 9 (Homo sapiens), sequence (P80192 whole entry, looked up): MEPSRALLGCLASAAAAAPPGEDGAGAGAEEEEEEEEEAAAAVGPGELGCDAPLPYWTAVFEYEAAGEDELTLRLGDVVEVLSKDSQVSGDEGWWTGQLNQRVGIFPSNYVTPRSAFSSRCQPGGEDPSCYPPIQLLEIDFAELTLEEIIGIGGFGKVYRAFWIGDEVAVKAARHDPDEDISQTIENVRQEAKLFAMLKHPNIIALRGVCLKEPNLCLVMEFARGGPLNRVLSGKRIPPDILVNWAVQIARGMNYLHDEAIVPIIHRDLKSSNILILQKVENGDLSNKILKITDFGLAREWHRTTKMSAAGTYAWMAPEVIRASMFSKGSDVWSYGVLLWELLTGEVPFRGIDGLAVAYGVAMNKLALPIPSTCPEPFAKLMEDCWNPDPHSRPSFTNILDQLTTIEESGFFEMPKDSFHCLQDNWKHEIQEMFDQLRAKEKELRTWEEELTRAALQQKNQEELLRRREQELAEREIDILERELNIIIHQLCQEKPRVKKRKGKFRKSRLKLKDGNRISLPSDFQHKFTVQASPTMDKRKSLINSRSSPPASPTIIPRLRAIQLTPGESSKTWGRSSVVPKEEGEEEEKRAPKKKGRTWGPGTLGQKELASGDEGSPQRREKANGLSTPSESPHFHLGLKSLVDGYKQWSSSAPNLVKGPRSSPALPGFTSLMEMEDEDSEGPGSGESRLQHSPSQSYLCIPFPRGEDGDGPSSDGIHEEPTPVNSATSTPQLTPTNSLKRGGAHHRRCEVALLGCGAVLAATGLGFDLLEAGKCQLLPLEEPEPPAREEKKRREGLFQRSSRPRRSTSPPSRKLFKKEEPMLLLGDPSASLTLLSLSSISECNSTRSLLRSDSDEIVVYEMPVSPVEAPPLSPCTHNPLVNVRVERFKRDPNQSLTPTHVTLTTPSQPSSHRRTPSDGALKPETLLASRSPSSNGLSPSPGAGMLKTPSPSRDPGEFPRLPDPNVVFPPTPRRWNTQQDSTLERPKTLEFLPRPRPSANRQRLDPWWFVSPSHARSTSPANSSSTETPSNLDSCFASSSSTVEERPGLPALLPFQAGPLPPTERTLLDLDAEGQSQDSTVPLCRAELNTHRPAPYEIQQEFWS

[8] = target: Serine/threonine-protein kinase Sgk3 (Homo sapiens) (UniProt Q96BR1); experiment: Inhibition of human SGK3 at 10 uM after 60 mins by TR-FRET assay; values are per cent of control
[9] = target: T1, Serine/threonine-protein kinase Chk1 (Homo sapiens) (UniProt O14757); experiment: Inhibition of human CHK1 at 10 uM after 60 mins by TR-FRET assay; values are per cent of control
T1 sequence (whole entry): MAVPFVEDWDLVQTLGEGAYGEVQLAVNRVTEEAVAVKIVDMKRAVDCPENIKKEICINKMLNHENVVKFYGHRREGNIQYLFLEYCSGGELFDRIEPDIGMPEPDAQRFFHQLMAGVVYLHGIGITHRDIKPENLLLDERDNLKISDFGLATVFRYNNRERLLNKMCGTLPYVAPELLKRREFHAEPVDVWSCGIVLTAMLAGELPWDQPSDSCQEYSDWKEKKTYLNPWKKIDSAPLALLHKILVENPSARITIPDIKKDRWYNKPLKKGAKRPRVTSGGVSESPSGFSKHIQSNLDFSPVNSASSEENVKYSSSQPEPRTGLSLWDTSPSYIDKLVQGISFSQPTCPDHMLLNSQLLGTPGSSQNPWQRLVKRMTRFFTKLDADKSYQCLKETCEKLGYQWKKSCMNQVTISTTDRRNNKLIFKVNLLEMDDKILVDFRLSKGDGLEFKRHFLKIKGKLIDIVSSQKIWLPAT

[10] = target: Serine/threonine-protein kinase PAK 3 (Homo sapiens) (UniProt O75914); experiment: Inhibition of human PAK3 at 10 uM after 60 mins by TR-FRET assay; values are per cent of control
[11] = target: Serine/threonine-protein kinase PAK 6 (Homo sapiens) (UniProt Q9NQU5); experiment: Inhibition of human PAK6 at 10 uM after 60 mins by TR-FRET assay; values are per cent of control
[12] = target: SRSF protein kinase 3 (Homo sapiens) (UniProt Q9UPE1); experiment: Inhibition of human MSSK1 at 10 uM after 60 mins by TR-FRET assay; values are per cent of control
[13] = target: Eukaryotic elongation factor 2 kinase (Homo sapiens) (UniProt O00418); experiment: Inhibition of human eEF-2K at 10 uM after 60 mins by TR-FRET assay; values are per cent of control
[14] = target: Insulin-like growth factor 1 receptor (Homo sapiens) (UniProt P08069); experiment: Inhibition of human IGF-1R at 10 uM after 60 mins by TR-FRET assay; values are per cent of control
[15] = target: Cyclin-dependent kinase 5/CDK5 activator 1 (Homo sapiens) (UniProt Q00535+Q15078); experiment: Inhibition of human CDK5/p25 at 10 uM after 60 mins by TR-FRET assay; values are per cent of control
Cyclin-dependent kinase 5/CDK5 activator 1 (Homo sapiens), sequence (Q00535 whole entry): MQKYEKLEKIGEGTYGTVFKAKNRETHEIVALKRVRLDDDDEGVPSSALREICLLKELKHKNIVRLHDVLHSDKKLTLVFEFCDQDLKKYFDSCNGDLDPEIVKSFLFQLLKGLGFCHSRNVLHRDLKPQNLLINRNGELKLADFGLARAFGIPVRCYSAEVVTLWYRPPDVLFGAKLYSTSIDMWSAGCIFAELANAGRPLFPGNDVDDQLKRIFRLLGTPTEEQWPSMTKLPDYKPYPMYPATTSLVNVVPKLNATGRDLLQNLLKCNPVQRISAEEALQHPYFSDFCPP
Cyclin-dependent kinase 5/CDK5 activator 1 (Homo sapiens), sequence (Q15078 99-307 partner limits assumed): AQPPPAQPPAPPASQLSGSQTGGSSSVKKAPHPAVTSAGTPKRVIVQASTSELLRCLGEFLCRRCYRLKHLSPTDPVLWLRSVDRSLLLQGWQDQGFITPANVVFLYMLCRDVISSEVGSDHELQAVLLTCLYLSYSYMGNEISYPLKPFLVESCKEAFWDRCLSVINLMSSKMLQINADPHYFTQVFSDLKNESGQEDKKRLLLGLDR

[16] = target: Protein kinase C theta type (Homo sapiens) (UniProt Q04759); experiment: Inhibition of human PKCtheta at 10 uM after 60 mins by TR-FRET assay; values are per cent of control
[17] = target: cGMP-dependent protein kinase 1 (Homo sapiens) (UniProt Q13976); experiment: Inhibition of human PKG1beta at 10 uM after 60 mins by TR-FRET assay; values are per cent of control
[18] = test system: Tyrosine-protein kinase ABL1 (Homo sapiens), P00519 [Q252H]; experiment: Inhibition of human Abl Q252H mutant at 10 uM after 60 mins by TR-FRET assay; values are per cent of control
[19] = test system: Proto-oncogene tyrosine-protein kinase receptor Ret (Homo sapiens), P07949 [V804M]; experiment: Inhibition of human Ret V804M mutant at 10 uM after 60 mins by TR-FRET assay; values are per cent of control
Proto-oncogene tyrosine-protein kinase receptor Ret (Homo sapiens), P07949 [V804M], sequence (P07949 whole entry V804M): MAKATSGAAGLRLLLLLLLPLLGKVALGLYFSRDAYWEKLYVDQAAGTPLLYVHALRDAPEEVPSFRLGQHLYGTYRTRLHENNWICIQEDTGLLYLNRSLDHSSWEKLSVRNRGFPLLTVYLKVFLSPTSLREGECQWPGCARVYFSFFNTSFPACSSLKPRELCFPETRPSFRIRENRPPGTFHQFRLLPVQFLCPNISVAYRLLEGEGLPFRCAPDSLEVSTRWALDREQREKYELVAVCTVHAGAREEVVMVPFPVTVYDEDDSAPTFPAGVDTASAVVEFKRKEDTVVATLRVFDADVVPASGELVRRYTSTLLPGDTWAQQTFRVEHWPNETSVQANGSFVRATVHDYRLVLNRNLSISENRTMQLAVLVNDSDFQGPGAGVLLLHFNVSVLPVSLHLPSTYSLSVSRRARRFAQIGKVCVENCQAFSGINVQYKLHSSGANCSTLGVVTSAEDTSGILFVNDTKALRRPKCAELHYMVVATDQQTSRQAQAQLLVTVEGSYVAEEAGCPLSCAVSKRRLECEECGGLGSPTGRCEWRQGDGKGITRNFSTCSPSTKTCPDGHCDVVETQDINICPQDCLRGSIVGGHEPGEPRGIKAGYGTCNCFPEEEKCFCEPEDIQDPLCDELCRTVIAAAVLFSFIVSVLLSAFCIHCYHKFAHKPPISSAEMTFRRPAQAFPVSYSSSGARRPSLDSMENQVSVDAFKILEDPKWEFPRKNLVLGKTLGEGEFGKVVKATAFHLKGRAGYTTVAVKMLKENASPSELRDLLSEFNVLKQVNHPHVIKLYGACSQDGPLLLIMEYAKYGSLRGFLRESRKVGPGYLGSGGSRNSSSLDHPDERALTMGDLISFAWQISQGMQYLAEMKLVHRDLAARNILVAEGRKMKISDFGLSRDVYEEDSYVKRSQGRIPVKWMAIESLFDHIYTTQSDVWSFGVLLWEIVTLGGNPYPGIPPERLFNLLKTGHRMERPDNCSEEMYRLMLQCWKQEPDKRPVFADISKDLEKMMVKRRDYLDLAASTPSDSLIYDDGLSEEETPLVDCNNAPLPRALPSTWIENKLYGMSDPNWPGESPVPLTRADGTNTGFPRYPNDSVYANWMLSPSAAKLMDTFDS

[20] = test system: Fibroblast growth factor receptor 1 (Homo sapiens), P11362 [V561M]; experiment: Inhibition of human FGFR1 V561M mutant at 10 uM after 60 mins by TR-FRET assay; values are per cent of control
[21] = test system: Mast/stem cell growth factor receptor Kit (Homo sapiens), P10721 [V560G]; experiment: Inhibition of human c-Kit V560G mutant at 10 uM after 60 mins by TR-FRET assay; values are per cent of control
Mast/stem cell growth factor receptor Kit (Homo sapiens), P10721 [V560G], sequence (P10721 whole entry V560G): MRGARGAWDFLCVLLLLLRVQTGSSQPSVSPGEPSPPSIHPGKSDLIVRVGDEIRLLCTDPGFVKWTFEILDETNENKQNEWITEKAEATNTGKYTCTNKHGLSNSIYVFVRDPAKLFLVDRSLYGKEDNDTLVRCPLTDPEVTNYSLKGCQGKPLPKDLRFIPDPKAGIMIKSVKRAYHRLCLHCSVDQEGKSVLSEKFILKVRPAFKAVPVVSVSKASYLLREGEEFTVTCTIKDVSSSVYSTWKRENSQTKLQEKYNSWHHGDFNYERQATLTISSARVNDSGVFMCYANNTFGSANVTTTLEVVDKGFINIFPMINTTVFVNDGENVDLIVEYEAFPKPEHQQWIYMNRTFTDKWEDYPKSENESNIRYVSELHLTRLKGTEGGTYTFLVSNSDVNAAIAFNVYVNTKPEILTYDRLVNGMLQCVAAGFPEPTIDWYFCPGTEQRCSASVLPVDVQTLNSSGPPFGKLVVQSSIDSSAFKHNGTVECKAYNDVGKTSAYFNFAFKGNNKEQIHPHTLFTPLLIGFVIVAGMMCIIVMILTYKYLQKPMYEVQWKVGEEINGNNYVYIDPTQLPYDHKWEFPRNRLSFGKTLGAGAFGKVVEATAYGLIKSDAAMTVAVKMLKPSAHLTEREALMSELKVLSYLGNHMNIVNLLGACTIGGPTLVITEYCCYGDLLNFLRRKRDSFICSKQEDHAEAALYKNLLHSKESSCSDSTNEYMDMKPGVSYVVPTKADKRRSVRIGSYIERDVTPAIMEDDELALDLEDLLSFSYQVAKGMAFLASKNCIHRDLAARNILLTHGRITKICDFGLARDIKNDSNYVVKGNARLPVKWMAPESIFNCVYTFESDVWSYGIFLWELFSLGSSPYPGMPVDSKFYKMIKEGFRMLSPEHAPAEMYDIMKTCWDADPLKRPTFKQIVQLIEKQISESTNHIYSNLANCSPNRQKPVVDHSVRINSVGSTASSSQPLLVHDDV

[22] = test system: Mast/stem cell growth factor receptor Kit (Homo sapiens), P10721 [V654A]; experiment: Inhibition of human c-Kit V654A mutant at 10 uM after 60 mins by TR-FRET assay; values are per cent of control
Mast/stem cell growth factor receptor Kit (Homo sapiens), P10721 [V654A], sequence (P10721 whole entry V654A): as the sequence (P10721 whole entry V560G) above, with G560V, V654A counted along it

[23] = test system: Platelet-derived growth factor receptor alpha (Homo sapiens), P16234 [D842V]; experiment: Inhibition of human PDGFRalpha D842V mutant at 10 uM after 60 mins by TR-FRET assay; values are per cent of control

inhibition [1]: 88% | residual activity [2]: 106% | residual activity [3]: 109% | residual activity [4]: 113% | residual activity [5]: 118% | residual activity [6]: 123% | residual activity [7]: 109% | residual activity [8]: 102% | residual activity [9]: 113% | residual activity [10]: 99% | residual activity [11]: 103% | residual activity [12]: 121% | residual activity [13]: 105% | residual activity [14]: 115% | residual activity [15]: 112% | residual activity [16]: 114% | residual activity [17]: 109% | residual activity [18]: 111% | residual activity [19]: 116% | residual activity [20]: 106% | residual activity [21]: 102% | residual activity [22]: 112% | residual activity [23]: 122%
SMILES: S=c1[nH]nc(-c2ccncc2)n1-c1ccc2ccccc2c1
